These results are taken from PubChem BioAssay (NCI).

Each structure is given as a SMILES string. Several values for one entry are separate records, joined by “and”; a condition that tells them apart may be missing. Equal entries are not always repeated.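 Five compound concentrations were applied to cells in 96-well plates for 48 hours; endpoints were derived by simple linear interpolation of the resulting dose-response curve. GI50: concentration for 50% inhibition of growth. TGI: total growth inhibition.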 A value given as a limit tells only on which side of the number the result lay.

Some test systems named below: CAKI-1 renal; CCRF-CEM leukemia; DU-145 prostate; HOP-62 NSCLC; K-562 leukemia; NCI-H460 lung; PC-3 prostate; SF-295 CNS; SF-539 CNS; TK-10 renal.
What all share (assay): inhibition of tumour cell growth, NCI panel, 48 h

As for `CC1(C)CCc2c(c(N=Nc3ccccc3F)c3ccccc3c2O)O1`, the GI50 in the experiment on CAKI-1 renal was 31.6 µM; in the experiment on CCRF-CEM leukemia it was > 100000 nM; with DU-145 prostate, 87.5 µM; in the experiment on HOP-62 NSCLC, 45.3 µM; in the experiment on K-562 leukemia, > 100000 nM; in the experiment with NCI-H460 lung, 38.3 µM. Besides, the GI50 was 59800 nM in the experiment with PC-3 prostate, 17800 nM in the experiment with SF-295 CNS, 21.2 µM in the experiment on SF-539 CNS and 68.2 µM in the experiment on TK-10 renal. The TGI with CAKI-1 renal, in the experiment with CCRF-CEM leukemia, in the experiment with DU-145 prostate, in the experiment with HOP-62 NSCLC, with K-562 leukemia and with NCI-H460 lung was > 100 µM in each case. The TGI is > 100 µM in the experiment on PC-3 prostate, 44 µM in the experiment on SF-295 CNS, 40.4 µM in the experiment on SF-539 CNS and > 100 µM in the experiment on TK-10 renal.

For the compound `CC1OC(CC(=O)O)Cc2c1c(O)c1c(O)cc(-c3cc(=O)c4c(=O)c5c(c(=O)c=4c3=O)CC(CC(=O)O)OC5C)c(O)c1c2O` (stereo unspecified), the GI50 in the experiment on CAKI-1 renal is 23.6 µM; in the experiment on DU-145 prostate it was 26.2 µM; in the experiment on HOP-62 NSCLC, 71 µM; in the experiment on K-562 leukemia, 61100 nM; in the experiment with NCI-H460 lung, 35 µM; with SF-295 CNS, 77300 nM. Besides, the GI50 in the experiment with SF-539 CNS was 59.3 µM; in the experiment with TK-10 renal, 34 µM. Further, the TGI in the experiment on CAKI-1 renal was 87.5 µM and 52.7 µM; in the experiment on CCRF-CEM leukemia, > 48.2 µM; in the experiment with DU-145 prostate it was 96.2 µM; in the experiment on HOP-62 NSCLC, > 100 µM; in the experiment on K-562 leukemia it was > 83.6 µM; with NCI-H460 lung it was > 100 µM. In addition, the TGI is 64.3 µM in the experiment with PC-3 prostate, > 100 µM in the experiment on SF-295 CNS, 36 µM in the experiment with SF-539 CNS and > 93 µM in the experiment with TK-10 renal.

With `COc1cc2c(cc1O)c(=O)n(CCN(C)C)c1c3cc4c(cc3ncc21)OCO4`, the GI50 in the experiment with CAKI-1 renal was < 0.01 µM; in the experiment on CCRF-CEM leukemia it was < 10 nM; in the experiment with DU-145 prostate, < 0.01 µM; in the experiment with HOP-62 NSCLC, < 0.01 µM; in the experiment with K-562 leukemia, 19 nM; in the experiment with NCI-H460 lung it was < 0.01 µM. In addition, the GI50 in the experiment with PC-3 prostate is 243 nM; in the experiment on SF-295 CNS, 51.7 nM; with SF-539 CNS, < 0.01 µM; in the experiment with TK-10 renal, 0.127 µM. Moreover, the TGI in the experiment on CAKI-1 renal was 1.24 µM; in the experiment with CCRF-CEM leukemia it was > 26.8 µM; in the experiment on DU-145 prostate, 1.94 µM; in the experiment on HOP-62 NSCLC, 0.044 µM; with K-562 leukemia, > 100 µM; in the experiment on NCI-H460 lung, 0.329 µM. For the same compound, the TGI stood at 2.51 µM in the experiment on PC-3 prostate, 4.02 µM in the experiment with SF-295 CNS, 0.0223 µM in the experiment on SF-539 CNS and 0.524 µM in the experiment with TK-10 renal.

As for `COc1cc2c(/C=C3/C(=O)Nc4ccc(O)cc43)c(Cl)n(Cc3cc(OC)c(OC)c(OC)c3)c2cc1C`, the GI50 is 2.25 µM in the experiment with CAKI-1 renal; 1380 nM in the experiment on CCRF-CEM leukemia; 3.42 µM in the experiment with DU-145 prostate; 1.65 µM with HOP-62 NSCLC; 2170 nM in the experiment on K-562 leukemia; 1.86 µM with NCI-H460 lung. For the same compound, the GI50 in the experiment on PC-3 prostate is 1560 nM; with SF-295 CNS, 795 nM; in the experiment with SF-539 CNS, 2.24 µM; in the experiment with TK-10 renal, 3.25 µM. Moreover, the TGI in the experiment on CAKI-1 renal is 15 µM; in the experiment with CCRF-CEM leukemia it was 10.9 µM; in the experiment with DU-145 prostate, > 30.3 µM; in the experiment with HOP-62 NSCLC, 29.4 µM; in the experiment with K-562 leukemia it was > 31.6 µM; with NCI-H460 lung, > 32.7 µM. Further, the TGI in the experiment on PC-3 prostate was > 83.6 µM; with SF-295 CNS, 5.67 µM; in the experiment with SF-539 CNS, > 31.1 µM; with TK-10 renal, > 24.6 µM.

Regarding `COc1ccc(CNCCCN2C(=O)c3ccc4c5c(ccc(c35)C2=O)C(=O)N(CCCNCc2ccc(OC)c(OC)c2OC)C4=O)c(OC)c1OC`, the GI50 in the experiment on CAKI-1 renal is 0.671 µM; in the experiment on CCRF-CEM leukemia it was 137 nM; with DU-145 prostate it was 0.093 µM; with HOP-62 NSCLC it was 0.171 µM; in the experiment with K-562 leukemia, 168 nM; in the experiment on NCI-H460 lung, 0.121 µM. For the same compound, the GI50 is 109 nM in the experiment on PC-3 prostate, 119 nM with SF-295 CNS, 0.102 µM with SF-539 CNS and 0.0981 µM with TK-10 renal. The TGI amounted to 1.95 µM with CAKI-1 renal; 2.04 µM in the experiment with CCRF-CEM leukemia; 0.185 µM in the experiment on DU-145 prostate; 0.729 µM in the experiment on HOP-62 NSCLC; 0.515 µM in the experiment on K-562 leukemia; 0.336 µM in the experiment with NCI-H460 lung. In addition, the TGI in the experiment with PC-3 prostate was 0.293 µM; in the experiment with SF-295 CNS it was 0.331 µM; in the experiment with SF-539 CNS, 0.235 µM; in the experiment with TK-10 renal, 0.269 µM.

For the compound `OCCN(CCO)c1nc(N2CCCCC2)c2nc(N(CCO)CCO)nc(N3CCCCC3)c2n1`, the TGI in the experiment on CAKI-1 renal, in the experiment with CCRF-CEM leukemia, in the experiment on DU-145 prostate, in the experiment with HOP-62 NSCLC, with K-562 leukemia and in the experiment with NCI-H460 lung was > 100 µM in each case. Moreover, the TGI in the experiment on PC-3 prostate is > 100 µM; in the experiment on TK-10 renal it was 64.6 µM.

Turning to `O=c1cc(-c2ccccc2)oc2c1ccc1ccccc12`, the GI50 with CAKI-1 renal was 18 µM; in the experiment on CCRF-CEM leukemia, 22800 nM; in the experiment with DU-145 prostate, 30.6 µM; with HOP-62 NSCLC, 29.6 µM; with K-562 leukemia, 49500 nM; in the experiment with NCI-H460 lung, 28.6 µM. The results for the GI50 with PC-3 prostate, in the experiment on SF-539 CNS and in the experiment with TK-10 renal were 23100 nM, 18.6 µM and 28.2 µM, respectively. Moreover, the TGI with CAKI-1 renal was > 100 µM; in the experiment on CCRF-CEM leukemia, 73.8 µM; in the experiment with DU-145 prostate, > 100 µM; in the experiment on HOP-62 NSCLC, > 100 µM; in the experiment on K-562 leukemia it was > 100 µM; in the experiment on NCI-H460 lung it was > 100 µM. Besides, the values for the TGI in the experiment on PC-3 prostate, with SF-539 CNS and with TK-10 renal were > 100 µM, 76.1 µM and 65 µM, respectively.

For `NNc1nc2ccccc2o1`, the TGI in the experiment with CAKI-1 renal, in the experiment on CCRF-CEM leukemia, in the experiment on DU-145 prostate, in the experiment on K-562 leukemia, with NCI-H460 lung and in the experiment on PC-3 prostate was > 100 µM each time. The TGI in the experiment on SF-539 CNS and in the experiment with TK-10 renal was > 100 µM throughout.

For `C=CCOc1ccc(N)c([N+](=O)[O-])c1`, the TGI in the experiment on CAKI-1 renal, in the experiment with CCRF-CEM leukemia, with DU-145 prostate, in the experiment with HOP-62 NSCLC, in the experiment on K-562 leukemia and in the experiment with PC-3 prostate was > 100 µM each time. Further, the TGI in the experiment with SF-295 CNS, with SF-539 CNS and in the experiment on TK-10 renal was > 100 µM in each case.
